Data: patent US9695155B2, “Herbicidal substituted pyrimidinyloxy benzene compounds” (E. I. DU PONT DE NEMOURS AND COMPANY, priority 2013, dated 2017)

What was measured:
[1] = tested on: barnyardgrass; test: Test A postemergence; type: in vivo, Echinochloa crus-galli
Outline: (§1)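 Pre- and postemergence greenhouse screen. Soil: loam + sand. Spray carrier: solvent mixture, non-phytotoxic, with surfactant. Post timing at 1–2 leaves, height 2–10 cm. Readout: visual injury on a 0–100 scale roughly 10 days after application, untreated plants as reference.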

[2] = tested on: rice; test: Test C flooded paddy test; type: in vivo, Oryza sativa; conditions: Flood, scale 0 to 100 (0 no effect, 100 complete control), 13 to 15 days
Outline: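 Greenhouse pots flooded to 3 cm above soil at time of treatment received compound via the water, which stayed at that level.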

[3] = tested on: barnyardgrass; test: Test A preemergence; type: in vivo, Echinochloa crus-galli; conditions: for Barnyardgrass plant response rating (0 to 100 scale, 0 is no effect, 100 is complete control): 125 g ai/ha; for Barnyardgrass plant response rating: 500 g ai/ha, 0 to 100 scale where 0 is no effect and 100 is complete control
Outline: as §1

[4] = tested on: corn; test: Test A preemergence; type: in vivo, Zea mays; conditions: for Corn plant response rating (0 to 100 scale): 125 g ai/ha; for Corn plant response rating: 500 g ai/ha, 0 to 100 scale where 0 is no effect and 100 is complete control
Outline: as §1

[5] = tested on: pigweed; test: Test A postemergence; type: in vivo, Amaranthus retroflexus
Outline: as §1

[6] = tested on: ducksalad; test: Test C flooded paddy test; type: in vivo, Heteranthera limosa; conditions: Flood, scale 0 to 100 (0 no effect, 100 complete control), 13 to 15 days
From the text: (§2) At time of treatment, test pots were flooded to 3 cm above the soil surface, treated by application of test compounds directly to the paddy water, and then maintained at that water depth for the duration of the test. Treated plants and controls were maintained in a greenhouse for 13 to 15 days, after which time all species were compared to controls and visually evaluated. […] A dash (-) response means no test result.

[7] = tested on: pigweed; test: Test A preemergence; type: in vivo, Amaranthus retroflexus; conditions: for Pigweed plant response rating (0 to 100 scale): 125 g ai/ha; for Pigweed plant response rating: 500 g ai/ha, 0 to 100 scale where 0 is no effect and 100 is complete control
Outline: as §1

[8] = tested on: giant foxtail; test: Test A preemergence; type: in vivo, Setaria faberii; conditions: for Foxtail, Giant plant response rating (0 to 100 scale): 125 g ai/ha; for Foxtail, Giant plant response rating: 500 g ai/ha, 0 to 100 scale where 0 is no effect and 100 is complete control
Outline: as §1

[9] = tested on: morningglory; test: Test A postemergence; type: in vivo, Ipomoea spp.
Outline: as §1

[10] = tested on: morningglory; test: Test A preemergence; type: in vivo, Ipomoea spp.; conditions: for Morningglory plant response rating (0 to 100 scale): 125 g ai/ha; for Morningglory plant response rating: 500 g ai/ha, 0 to 100 scale where 0 is no effect and 100 is complete control
Outline: as §1

[11] = tested on: wheat; test: Test A preemergence; type: in vivo, Triticum aestivum; conditions: for Wheat plant response rating (0 to 100 scale): 125 g ai/ha; for Wheat plant response rating: 500 g ai/ha, 0 to 100 scale where 0 is no effect and 100 is complete control
Outline: as §1

[12] = tested on: sedge, umbrella; test: Test C flooded paddy test; type: in vivo, Cyperus difformis; conditions: Flood, scale 0 to 100 (0 no effect, 100 complete control), 13 to 15 days
From the text: as §2

[13] = tested on: large (Lg) crabgrass; test: Test A postemergence; type: in vivo, Digitaria sanguinalis
Outline: as §1

[14] = tested on: rice; test: Test B flooded paddy test; type: in vivo, Oryza sativa; conditions: Flood, 250 g ai/ha; 0 to 100 scale where 0 is no effect and 100 is complete control
Outline: (§3)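 Greenhouse flooded-pot test: compounds dosed into 3 cm standing water over 2-leaf plants, flood held constant. Rated visually after 13–15 days on 0–100 (complete control = 100); a dash marks no test result.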

[15] = tested on: velvetleaf; test: Test A postemergence; type: in vivo, Abutilon theophrasti
Outline: as §1

[16] = tested on: wheat; test: Test A postemergence; type: in vivo, Triticum aestivum
Outline: as §1

[17] = tested on: Heteranthera limosa; test: Test B flooded paddy test; type: in vivo; conditions: Flood, 250 g ai/ha; 0 to 100 scale where 0 is no effect and 100 is complete control
Outline: as §3

[18] = tested on: giant foxtail; test: Test A postemergence; type: in vivo, Setaria faberii
Outline: as §1

[19] = tested on: barnyardgrass; test: Test C flooded paddy test; type: in vivo, Echinochloa crus-galli; conditions: Flood, scale 0 to 100 (0 no effect, 100 complete control), 13 to 15 days
From the text: as §2

[20] = tested on: corn; test: Test A postemergence; type: in vivo, Zea mays
Outline: as §1

[21] = tested on: large (Lg) crabgrass; test: Test A preemergence; type: in vivo, Digitaria sanguinalis; conditions: for Crabgrass, Large plant response rating (0 to 100 scale): 125 g ai/ha; for Crabgrass, Large plant response rating: 500 g ai/ha, 0 to 100 scale where 0 is no effect and 100 is complete control
Outline: as §1

[22] = tested on: sedge, umbrella; test: Test B flooded paddy test; type: in vivo, Cyperus difformis; conditions: Flood, 250 g ai/ha; 0 to 100 scale where 0 is no effect and 100 is complete control
Outline: as §3

[23] = tested on: barnyardgrass; test: Test B flooded paddy test; type: in vivo, Echinochloa crus-galli; conditions: Flood, 250 g ai/ha; 0 to 100 scale where 0 is no effect and 100 is complete control
Outline: as §3

[24] = tested on: velvetleaf; test: Test A preemergence; type: in vivo, Abutilon theophrasti; conditions: for Velvetleaf plant response rating (0 to 100 scale): 125 g ai/ha; for Velvetleaf plant response rating: 500 g ai/ha, 0 to 100 scale where 0 is no effect and 100 is complete control
Outline: as §1

[25] = 125 g ai/ha, 0 to 100 scale, 0 no effect, 100 complete control
[26] = 500 g ai/ha, 0 to 100 scale where 0 is no effect and 100 is complete control
[27] = 125 g ai/ha, 0 to 100 scale where 0 is no effect and 100 is complete control

C[Si](C)(C)C#Cc1cccc(Oc2ncc(Cl)cn2)c1-n1cc(Br)cn1 [Compound 293]
10: Plant response rating, Barnyardgrass [1, 25] | Plant response rating, Barnyardgrass [1, 26] | Barnyardgrass plant response rating [3] | Plant response rating, Morningglory [9, 25]
30: Plant response rating, Ducksalad ([6]; 31 g ai/ha) | Plant response rating, Morningglory [9, 26] | Plant response rating, Crabgrass, Large [13, 26] | Plant response rating, Foxtail, Giant [18, 26]
90: Plant response rating, Pigweed [5, 26] | Foxtail, Giant plant response rating [8] | Crabgrass, Large plant response rating [21]
0: Plant response rating, Rice ([2]; 31 g ai/ha) | Plant response rating, Rice ([2]; 62 g ai/ha) | Plant response rating, Rice ([2]; 125 g ai/ha) | Barnyardgrass plant response rating (0 to 100 scale, 0 is no effect, 100 is complete control) [3] | Corn plant response rating (0 to 100 scale) [4] | Corn plant response rating [4] | Morningglory plant response rating (0 to 100 scale) [10] | Morningglory plant response rating [10] | Wheat plant response rating (0 to 100 scale) [11] | Wheat plant response rating [11] | Plant response rating, Rice [14] | Plant response rating, Wheat [16, 25] | Plant response rating, Wheat [16, 26] | Plant response rating, Barnyardgrass ([19]; 31 g ai/ha) | Plant response rating, Barnyardgrass ([19]; 62 g ai/ha) | Plant response rating, Barnyardgrass ([19]; 125 g ai/ha) | Plant response rating, Corn [20, 25] | Plant response rating, Barnyardgrass [23] | Velvetleaf plant response rating (0 to 100 scale) [24] | Velvetleaf plant response rating [24]
75: Plant response rating, Ducksalad ([6]; 125 g ai/ha) | Plant response rating, Sedge, Umbrella ([12]; 62 g ai/ha)
20: Pigweed plant response rating (0 to 100 scale) [7] | Foxtail, Giant plant response rating (0 to 100 scale) [8] | Plant response rating, Crabgrass, Large [13, 25] | Plant response rating, Foxtail, Giant [18, 25] | Plant response rating, Corn [20, 26]
80: Pigweed plant response rating [7] | Plant response rating, Velvetleaf [15, 26] | Plant response rating, Ducksalad [17] | Plant response rating, Sedge, Umbrella [22]
40: Plant response rating, Ducksalad ([6]; 62 g ai/ha) | Crabgrass, Large plant response rating (0 to 100 scale) [21]
85: Plant response rating, Sedge, Umbrella ([12]; 125 g ai/ha)
60: Plant response rating, Pigweed [5, 25] | Plant response rating, Sedge, Umbrella ([12]; 31 g ai/ha) | Plant response rating, Velvetleaf [15, 25]

FC(F)c1cccc(Oc2ncc(Cl)cn2)c1-n1cc(I)cn1 [Compound 184]
60: Barnyardgrass plant response rating [1, 27] | Morningglory plant response rating [9, 27] | Velvetleaf plant response rating [24]
10: Plant response rating, Rice [14]
70: Crabgrass, Large plant response rating [13, 27] | Foxtail, Giant plant response rating [18, 27] | Plant response rating, Corn [20, 26]
0: Plant response rating, Rice ([2]; 31 g ai/ha) | Plant response rating, Rice ([2]; 62 g ai/ha) | Plant response rating, Rice ([2]; 125 g ai/ha) | Plant response rating, Rice ([2]; 250 g ai/ha) | Plant response rating, Ducksalad ([6]; 31 g ai/ha) | Morningglory plant response rating (0 to 100 scale) [10] | Wheat plant response rating (0 to 100 scale) [11] | Plant response rating, Sedge, Umbrella ([12]; 31 g ai/ha) | Plant response rating, Sedge, Umbrella ([12]; 62 g ai/ha) | Plant response rating, Barnyardgrass ([19]; 31 g ai/ha) | Plant response rating, Barnyardgrass ([19]; 62 g ai/ha) | Plant response rating, Barnyardgrass ([19]; 125 g ai/ha) | Plant response rating, Barnyardgrass ([19]; 250 g ai/ha) | Plant response rating, Barnyardgrass [23]
30: Barnyardgrass plant response rating (0 to 100 scale, 0 is no effect, 100 is complete control) [3] | Plant response rating, Ducksalad ([6]; 62 g ai/ha) | Plant response rating, Ducksalad ([6]; 125 g ai/ha) | Wheat plant response rating [11] | Wheat plant response rating [16, 27]
95: Plant response rating, Sedge, Umbrella [22]
75: Plant response rating, Ducksalad ([6]; 250 g ai/ha) | Plant response rating, Sedge, Umbrella ([12]; 250 g ai/ha)
50: Plant response rating, Sedge, Umbrella ([12]; 125 g ai/ha)
90: Plant response rating, Barnyardgrass [1, 26] | Plant response rating, Morningglory [9, 26] | Morningglory plant response rating [10] | Plant response rating, Velvetleaf [15, 26] | Plant response rating, Wheat [16, 26]
80: Plant response rating, Crabgrass, Large [13, 26] | Velvetleaf plant response rating [15, 27] | Plant response rating, Foxtail, Giant [18, 26]
20: Corn plant response rating (0 to 100 scale) [4] | Corn plant response rating [4] | Corn plant response rating [20, 27] | Velvetleaf plant response rating (0 to 100 scale) [24]
100: Barnyardgrass plant response rating [3] | Pigweed plant response rating [5, 27] | Plant response rating, Pigweed [5, 26] | Pigweed plant response rating (0 to 100 scale) [7] | Pigweed plant response rating [7] | Foxtail, Giant plant response rating (0 to 100 scale) [8] | Foxtail, Giant plant response rating [8] | Plant response rating, Ducksalad [17] | Crabgrass, Large plant response rating (0 to 100 scale) [21] | Crabgrass, Large plant response rating [21]

COc1cnc(Oc2ccccc2-n2cc(Br)cn2)nc1 [Compound 234]
60: Foxtail, Giant plant response rating (0 to 100 scale) [8] | Plant response rating, Morningglory [9, 26] | Plant response rating, Crabgrass, Large [13, 26]
30: Plant response rating, Ducksalad ([6]; 250 g ai/ha) | Foxtail, Giant plant response rating [18, 27] | Plant response rating, Corn [20, 26]
40: Morningglory plant response rating [9, 27] | Plant response rating, Sedge, Umbrella ([12]; 250 g ai/ha) | Velvetleaf plant response rating (0 to 100 scale) [24]
0: Plant response rating, Rice ([2]; 31 g ai/ha) | Plant response rating, Rice ([2]; 62 g ai/ha) | Plant response rating, Rice ([2]; 125 g ai/ha) | Plant response rating, Rice ([2]; 250 g ai/ha) | Corn plant response rating (0 to 100 scale) [4] | Plant response rating, Ducksalad ([6]; 31 g ai/ha) | Plant response rating, Ducksalad ([6]; 62 g ai/ha) | Plant response rating, Ducksalad ([6]; 125 g ai/ha) | Morningglory plant response rating (0 to 100 scale) [10] | Wheat plant response rating (0 to 100 scale) [11] | Wheat plant response rating [11] | Plant response rating, Sedge, Umbrella ([12]; 31 g ai/ha) | Plant response rating, Sedge, Umbrella ([12]; 62 g ai/ha) | Plant response rating, Sedge, Umbrella ([12]; 125 g ai/ha) | Plant response rating, Barnyardgrass ([19]; 31 g ai/ha) | Plant response rating, Barnyardgrass ([19]; 62 g ai/ha) | Plant response rating, Barnyardgrass ([19]; 125 g ai/ha) | Plant response rating, Barnyardgrass ([19]; 250 g ai/ha)
100: Barnyardgrass plant response rating [3] | Pigweed plant response rating [5, 27] | Plant response rating, Pigweed [5, 26] | Pigweed plant response rating [7] | Morningglory plant response rating [10] | Plant response rating, Velvetleaf [15, 26] | Crabgrass, Large plant response rating [21] | Velvetleaf plant response rating [24]
70: Plant response rating, Barnyardgrass [1, 26] | Velvetleaf plant response rating [15, 27] | Plant response rating, Foxtail, Giant [18, 26]
90: Corn plant response rating [4] | Pigweed plant response rating (0 to 100 scale) [7] | Foxtail, Giant plant response rating [8] | Plant response rating, Ducksalad [17] | Crabgrass, Large plant response rating (0 to 100 scale) [21] | Plant response rating, Sedge, Umbrella [22]
20: Barnyardgrass plant response rating [1, 27] | Barnyardgrass plant response rating (0 to 100 scale, 0 is no effect, 100 is complete control) [3] | Crabgrass, Large plant response rating [13, 27] | Plant response rating, Rice [14] | Wheat plant response rating [16, 27] | Plant response rating, Wheat [16, 26] | Corn plant response rating [20, 27] | Plant response rating, Barnyardgrass [23]
